Test results taken from the supplement of paper PMC11451515.

Legend:
Settings in all cases: 48 h
SEM cells [1] = assay: cell viability relative to DMSO control; higher = less cytotoxic
Summary of the method: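 Viability, reported as a per-plate percentage of DMSO wells with cell-free wells as background, came from CellTiter-Glo One luminescence. Reading took place after 48 h at 37°C. Before that, NOMO1 or SEM (500 cells/well) or P12-Ichikawa (1000 cells/well) leukemia cells, adapted for at least four passages in each medium, were seeded in 1536-well plates (5 μl) and pin-dosed with library compounds in DMSO, 47 μM to 0.79 nM over 11 threefold points.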

NOMO1 = assay: AUC of viability dose-response curve (% viability x log10 dose units); higher = less sensitive
Summary of the method: (§1)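 Viability of medium-adapted leukemia cells was measured by CellTiter-Glo One luminescence after 48 h at 37°C with library compounds in DMSO. Doses were 11 threefold steps from 47 μM to 0.79 nM, in 1536-well plates at 500 or 1000 cells/well. Signals were normalised per plate to DMSO and cell-free wells and fitted with a four-parameter log-logistic model on log10 dose. Area under the curve was integrated by trapezoidal rule, with curves exceeding full viability scaled and failed quality-control curves removed.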

P12-Ichikawa = assay: as above
Summary of the method: as §1

SEM cells [2] = assay: as above
Summary of the method: as §1

[3] = RPMI 5 mM glucose + 10% dialyzed FBS

SMILES	cell viability (SEM cells [1]; HPLM + 10% dialyzed FBS, 0.000781 µM)	cell viability (SEM cells [1]; HPLM + 10% dialyzed FBS, 0.00234 µM)	cell viability (SEM cells [1]; HPLM + 10% dialyzed FBS, 0.00702 µM)	cell viability (SEM cells [1]; HPLM + 10% dialyzed FBS, 0.0211 µM)	cell viability (SEM cells [1]; HPLM + 10% dialyzed FBS, 0.0632 µM)	cell viability (SEM cells [1]; HPLM + 10% dialyzed FBS, 0.19 µM)	cell viability (SEM cells [1]; HPLM + 10% dialyzed FBS, 0.569 µM)	cell viability (SEM cells [1]; HPLM + 10% dialyzed FBS, 1.71 µM)	cell viability (SEM cells [1]; HPLM + 10% dialyzed FBS, 5.12 µM)	cell viability (SEM cells [1]; HPLM + 10% dialyzed FBS, 15.4 µM)	cell viability (SEM cells [1]; HPLM + 10% dialyzed FBS, 46.1 µM)	cell viability (SEM cells [1]; RPMI 5 mM glucose + 10% FBS, 0.000781 µM)	cell viability (SEM cells [1]; RPMI 5 mM glucose + 10% FBS, 0.00234 µM)	cell viability (SEM cells [1]; RPMI 5 mM glucose + 10% FBS, 0.00702 µM)	cell viability (SEM cells [1]; RPMI 5 mM glucose + 10% FBS, 0.0211 µM)	cell viability (SEM cells [1]; RPMI 5 mM glucose + 10% FBS, 0.0632 µM)	cell viability (SEM cells [1]; RPMI 5 mM glucose + 10% FBS, 0.19 µM)	cell viability (SEM cells [1]; RPMI 5 mM glucose + 10% FBS, 0.569 µM)	cell viability (SEM cells [1]; RPMI 5 mM glucose + 10% FBS, 1.71 µM)	cell viability (SEM cells [1]; RPMI 5 mM glucose + 10% FBS, 5.12 µM)	cell viability (SEM cells [1]; RPMI 5 mM glucose + 10% FBS, 15.4 µM)	cell viability (SEM cells [1]; RPMI 5 mM glucose + 10% FBS, 46.1 µM)	AUC of viability dose-response curve (NOMO1; HPLM + 10% dialyzed FBS)	AUC of viability dose-response curve (NOMO1; RPMI 5 mM glucose + 10% FBS)	AUC of viability dose-response curve (NOMO1; [3])	AUC of viability dose-response curve (P12-Ichikawa; HPLM + 10% dialyzed FBS)	AUC of viability dose-response curve (P12-Ichikawa; RPMI 5 mM glucose + 10% FBS)	AUC of viability dose-response curve (P12-Ichikawa; [3])	AUC of viability dose-response curve (SEM cells [2]; HPLM + 10% dialyzed FBS)	AUC of viability dose-response curve (SEM cells [2]; RPMI 5 mM glucose + 10% FBS)	AUC of viability dose-response curve (SEM cells [2]; [3])
COc1ccc([S+](=O)([O-])Nc2cc(-c3c(O)ccc4ccccc34)c(O)c3ccccc23)cc1	96.8%	111%	134%	115%	101%	116%	101%	97%	86.4%	43.4%	6.74%	114%	115%	124%	131%	119%	127%	115%	88.7%	78.6%	18.4%	5.19%	435	453	462	429	439	432	408	383	389
COc1nc(N)nc2c1ncn2[C@@H]1O[C@H](CO)[C@@H](O)[C@@H]1O	–	–	–	–	–	–	–	–	–	–	–	–	–	–	–	–	–	–	–	–	–	–	458	444	448	455	462	456	472	449	463
c1ccc2c(CCNc3ccc(Nc4ccncc4)cc3)c[nH]c2c1	–	–	–	–	–	–	–	–	–	–	–	–	–	–	–	–	–	–	–	–	–	–	426	430	425	444	429	418	312	282	308
CCc1cnn2c(NCc3ccc[n+]([O-])c3)cc(N3CCCC[C@H]3CCO)nc12	–	–	–	–	–	–	–	–	–	–	–	–	–	–	–	–	–	–	–	–	–	–	224	231	223	236	230	234	206	193	198
COC1=CC(=CC(=C1)C2=CC=C3N=CC\4=C(N(C(=O)\C=C4)C5=CC(=C(C=C5)N6CCNCC6)C(F)(F)F)C3=C2)OC	–	–	–	–	–	–	–	–	–	–	–	–	–	–	–	–	–	–	–	–	–	–	387	456	436	440	407	412	406	414	413
C/C(O)=C(\C#N)C(=O)Nc1ccc(C(F)(F)F)cc1	–	–	–	–	–	–	–	–	–	–	–	–	–	–	–	–	–	–	–	–	–	–	457	470	436	454	455	432	437	430	431
Cc1oncc1C(=O)Nc1ccc(C(F)(F)F)cc1	–	–	–	–	–	–	–	–	–	–	–	–	–	–	–	–	–	–	–	–	–	–	458	461	422	461	454	459	471	468	465
